For series [1], the system named is DBTRG-05MG. In words: Induction of cell cycle arrest in human DBTRG-05MG cells assessed as accumulation at S phase at 206 uM after 12 hrs by propidium iodide staining based flow cytometric analysis (reference value: 22.76 +/- 1.56%). The format is functional. (In general: A flow cytometer gives signals particle by particle.)
Series [2] concerns DBTRG-05MG. In words: Induction of cell cycle arrest in human DBTRG-05MG cells assessed as CDK2 expression at 206 uM after 48 hrs by Western blot analysis (reference value: 1). The format is functional. On the technique in general: A western blot detects proteins with antibodies after separation by electrophoresis.
Series [3] in a line: Effect on ERK expression in human DBTRG-05MG cells at 206 uM after 48 hrs by Western blot analysis (reference value: 1). It counts as functional.
The nature of series [4]: Effect on ERK expression in rat RG2 cells at 206 uM after 48 hrs by Western blot analysis (reference value: 1). The format is functional.
Series [5] relates to RG2. The series can be described thus: Induction of apoptosis in rat RG2 cells assessed as phosphorylated caspace-3 expression at 206 uM after 48 hrs by Western blot analysis (reference value: 1). The format is functional.
For series [6], the system named is RG2. The series can be described thus: Induction of apoptosis in rat RG2 cells assessed as cleaved caspace-3 expression at 206 uM after 48 hrs by Western blot analysis (reference value: 1). It counts as functional.
The test system of series [7] is RG2. In words: Induction of apoptosis in rat RG2 cells assessed as cleaved PARP expression at 206 uM after 48 hrs by Western blot analysis (reference value: 1). The format is functional.
The subject of series [8] is RG2. In words: Induction of DNA damage in rat RG2 cells assessed as ATM phosphorylation at ser1981 residues at 206 uM after 48 hrs by Western blot analysis (reference value: 1). It counts as functional.
Series [9] deals with DBTRG-05MG. In words: Synergistic cytotoxicity against human DBTRG-05MG cells assessed as synergistic effect index at 112.4 uM after 48 hrs in presence of 206 uM TMZ by MTT assay. The format is functional. On the technique in general: Tetrazolium assays rely on reduction of a dye to a coloured formazan, in cell work by metabolically active cells.
Series [10] has as its system DBTRG-05MG. The series can be described thus: Synergistic cytotoxicity against human DBTRG-05MG cells assessed as synergistic effect index at 134.9 uM after 48 hrs in presence of 515.1 uM TMZ by MTT assay. The format is functional.
The subject of series [11] is DBTRG-05MG. In words: Synergistic cytotoxicity against human DBTRG-05MG cells assessed as combination index at 89.9 uM after 48 hrs in presence of 206 uM TMZ by MTT assay. The format is functional.
Series [12] relates to DBTRG-05MG. The series can be described thus: Synergistic cytotoxicity against human DBTRG-05MG cells assessed as combination index at 134.9 uM after 48 hrs in presence of 206 uM TMZ by MTT assay. The format is functional.
Series [13] in a line: Synergistic cytotoxicity against rat CTX TNA2 cells assessed as synergistic effect index at 89.9 uM after 48 hrs in presence of 309 uM TMZ by MTT assay. The format is cell-based. As to conditions: ctx tna2, 48 h.
Series [14] in a line: Synergistic cytotoxicity against rat CTX TNA2 cells assessed as synergistic effect index at 89.9 uM after 48 hrs in presence of 412.1 uM TMZ by MTT assay. The format is cell-based. As to conditions: ctx tna2, 48 h.
The nature of series [15]: Synergistic cytotoxicity against rat CTX TNA2 cells assessed as synergistic effect index at 134.9 uM after 48 hrs in presence of 309 uM TMZ by MTT assay. The format is cell-based. As to conditions: ctx tna2, 48 h.
Series [16] is described as follows: Synergistic cytotoxicity against rat CTX TNA2 cells assessed as combination index at 89.9 uM after 48 hrs in presence of 103 uM TMZ by MTT assay. It counts as cell-based. As to conditions: ctx tna2, 48 h.
Series [17] can be described thus: Synergistic cytotoxicity against rat CTX TNA2 cells assessed as combination index at 89.9 uM after 48 hrs in presence of 309 uM TMZ by MTT assay. The format is cell-based. As to conditions: ctx tna2, 48 h.
Series [18] in a line: Synergistic cytotoxicity against rat CTX TNA2 cells assessed as combination index at 112.4 uM after 48 hrs in presence of 515.1 uM TMZ by MTT assay. It counts as cell-based. As to conditions: ctx tna2, 48 h.
Series [19] relates to DBTRG-05MG. The series can be described thus: Induction of cell cycle arrest in human DBTRG-05MG cells assessed as accumulation at S phase at 112.4 uM after 6 hrs in presence of TMZ by propidium iodide staining based flow cytometric analysis (reference value: 22.76 +/- 1.56%). It counts as functional.
For series [20], the system named is DBTRG-05MG. The series can be described thus: Induction of cell cycle arrest in human DBTRG-05MG cells assessed as accumulation at G0/G1 phase at 112.4 uM after 12 hrs by propidium iodide staining based flow cytometric analysis (reference value: 47.16 +/- 1.55%). The format is functional.
Series [21] has as its system RG2. The series can be described thus: Induction of cell cycle arrest in rat RG2 cells assessed as accumulation at G2/M phase at 112.4 uM after 6 hrs by propidium iodide staining based flow cytometric analysis (reference value: 20.04 +/- 0.55%). The format is functional.
For series [22], the system named is RG2. In words: Induction of cell cycle arrest in rat RG2 cells assessed as accumulation at G2/M phase at 112.4 uM after 6 hrs in presence of TMZ by propidium iodide staining based flow cytometric analysis (reference value: 20.04 +/- 0.55%). It counts as functional.
The subject of series [23] is DBTRG-05MG. In words: Induction of cell cycle arrest in human DBTRG-05MG cells assessed as p53 expression at 112.4 uM after 48 hrs by Western blot analysis (reference value: 1). It counts as functional.
In series [24] the test system is DBTRG-05MG. The series can be described thus: Induction of cell cycle arrest in human DBTRG-05MG cells assessed as p21 expression at 112.4 uM after 48 hrs in presence of TMZ by Western blot analysis (reference value: 1). The format is functional.
Series [25] deals with DBTRG-05MG. The series can be described thus: Induction of cell cycle arrest in human DBTRG-05MG cells assessed as CyclinB1 expression at 112.4 uM after 48 hrs in presence of TMZ by Western blot analysis (reference value: 1). The format is functional.
Series [26] has as its system RG2. In words: Induction of cell cycle arrest in rat RG2 cells assessed as p21 expression at 112.4 uM after 48 hrs by Western blot analysis (reference value: 1). The format is functional.
The test system of series [27] is DBTRG-05MG. In words: Inhibition of ERK phosphorylation at Tyr204 residues in human DBTRG-05MG cells at 112.4uM after 48 hrs in presence of TMZ by Western blot analysis (reference value: 1). The format is cell-based.
Series [28] in a line: Effect on p38 expression in rat RG2 cells at 112.4uM after 48 hrs by Western blot analysis (reference value: 1). The format is functional.
In series [29] the test system is DBTRG-05MG. The series can be described thus: Induction of apoptosis in human DBTRG-05MG cells assessed as increase in apoptotic body formation at 112.4 uM after 48 hrs by TUNEL assay. It counts as functional, cell-based.
Series [30] relates to DBTRG-05MG. The series can be described thus: Induction of apoptosis in human DBTRG-05MG cells assessed as cleaved caspace-3 expression at 112.4 uM after 48 hrs in presence of TMZ by Western blot analysis (reference value: 1). It counts as functional.
Series [31] relates to RG2. In words: Induction of apoptosis in rat RG2 cells assessed as Bax expression at 112.4 uM after 48 hrs in presence of TMZ by Western blot analysis (reference value: 1). It counts as functional.
In series [32] the test system is RG2. The series can be described thus: Induction of apoptosis in rat RG2 cells assessed as cleaved caspace-3 expression at 112.4 uM after 48 hrs in presence of TMZ by Western blot analysis (reference value: 1). It counts as functional.
Series [33] has as its system DBTRG-05MG. The series can be described thus: Induction of DNA damage in human DBTRG-05MG cells assessed as H2A.X phosphorylation at ser139 residues at 112.4 uM after 48 hrs in presence of TMZ by Western blot analysis (reference value: 1). It counts as functional.
Series [34] can be described thus: Effect of CD133 expression in human DBTRG-05MG cells at 112.4 uM after 48 hrs by Western blot analysis. It counts as functional.

The text below walks through data of ChEMBL document CHEMBL4699511, “Cedrol, a Sesquiterpene Alcohol, Enhances the Anticancer Efficacy of Temozolomide in Attenuating Drug Resistance via Regulation of the DNA Damage Response and MGMT Expression” (J Nat Prod, 2020).

The structures appear in SMILES notation. Activity calls are given as the source filed them. The rule behind the calls is not given here.

Consider `Cn1nnc2c(C(N)=O)ncn2c1=O` [TEMOZOLOMIDE], for which the Activity in series [1] was 22.29%. In addition, the “fold change (FC)” value was found to be 0.8 in series [2]; 0.9 in series [3]; 1.1 in [4]; 1.1 in [5]; 2.5 in series [6]; 1.5 in [7]. Further, the “fold change (FC)” value in [8] was 0.9.
Regarding `C[C@@H]1CC[C@H]2C(C)(C)[C@H]3C[C@@]12CC[C@@]3(C)O` [CEDROL], the Activity_index in series [9] came to 0.88; in series [10], 0.89; in series [13], 0.49; in series [14], 0.56; in series [15], 0.52. Also, the CI in series [11] is listed as 0.74; in series [12], 0.59; in [16], 1.24; in series [17], 1.13; in [18], 0.87. For the same molecule, the Activity turned out to be 18.29% in [19], 54.65% in series [20], 21.06% in series [21] and 19.39% in series [22]. Moreover, the “fold change (FC)” value in series [23] is 0.9; in [24], 2.7; in series [25] it was 0.7; in [26], 1.6; in series [27], 0.5; in series [28], 0.8. Besides, the “fold change (FC)” value in series [30] was determined as 4.4; in series [31], 2.21; in series [32], 3.3; in series [33], 1.2; in series [34], 1.5. Moreover, the result in series [29] was Active.
